The results in this text go back to US20230096028A1, “BICYCLIC HETEROCYCLYL COMPOUNDS AND USES THEREOF” (Revolution Medicines, Inc., priority 2019, published 2023).

A word on the Kd: it is the free concentration of one partner at which half of the binding sites on the other are occupied at equilibrium, for simple one-to-one binding. Usually IC50 stands for the concentration that gives 50% inhibition.

Assay [1] concerns the target T1, SOS1 catalytic domain (residues 564-1049) (Homo sapiens, UniProt Q07889).
T1 sequence (Q07889 564-1049): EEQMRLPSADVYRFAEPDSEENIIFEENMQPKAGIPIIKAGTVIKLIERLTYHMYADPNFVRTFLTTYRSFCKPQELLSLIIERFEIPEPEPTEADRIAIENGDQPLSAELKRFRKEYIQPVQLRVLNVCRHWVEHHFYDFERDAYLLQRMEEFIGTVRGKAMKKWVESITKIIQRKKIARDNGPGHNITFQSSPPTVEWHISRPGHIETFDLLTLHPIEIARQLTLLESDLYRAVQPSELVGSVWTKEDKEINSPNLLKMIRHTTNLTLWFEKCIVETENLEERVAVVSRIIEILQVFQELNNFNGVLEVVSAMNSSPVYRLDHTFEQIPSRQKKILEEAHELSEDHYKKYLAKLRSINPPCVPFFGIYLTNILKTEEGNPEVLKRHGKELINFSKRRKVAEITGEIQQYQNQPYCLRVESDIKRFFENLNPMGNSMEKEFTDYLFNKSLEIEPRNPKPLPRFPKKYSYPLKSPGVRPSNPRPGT
Kind of assay: Potency Assay: binding affinity to SOS1 using Surface Plasmon Resonance (SPR). The conditions noted are these: immobilized SOS1 catalytic domain (residues 564-1049), read-out: SOS1 SPR Equilibrium Kd. Set-up: SOS1 catalytic domain (residues 564-1049) immobilized on a sensor chip. The essentials:
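Avi-tagged SOS1 catalytic domain captured on streptavidin chip (~6000 RU) in 0.01 M HEPES, 0.15 M NaCl, 0.05% P20. Compound dilution series flowed at 50 μL/min for association, then buffer for dissociation, with double reference subtraction. Kd derived from end-of-association binding response plotted against concentration.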

Assay [2] concerns PC-9 cells (EGFR Ex19Del). Kind of assay: Potency Assay: pERK (SOS1 pERK IC50 Assay, AlphaLISA SureFire Ultra p-ERK1/2). It counts as cell-based. The conditions noted are these: Homo sapiens; PC-9 cells (EGFR Ex19Del), 1 hour incubation, AlphaLISA p-ERK1/2; read-out: SOS1 pERK IC50. In a few lines: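 PC-9 (EGFR Ex19Del) cells plated overnight, then treated 1 h at 37° C. with 10-point 3-fold dilutions (top 10 μM final) in duplicate. Lysate pERK1/2 measured by AlphaLISA SureFire Ultra; IC50 from 4-parameter sigmoidal fit.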
On the technique in general: In Alpha technology, singlet oxygen from a donor bead excites a nearby acceptor bead.

The target in assay [3] is T1, SOS1 catalytic domain (residues 564-1049). Kind of assay: Mode of Action Assay: inhibition of SOS1 nucleotide exchange activity (SOS1 TR-FRET IC50 Assay). (Time-resolved FRET reads energy transfer from a long-lived donor to a nearby acceptor.)

Turning to `C[C@@H](Nc1nc(Br)nc2c1CN(C(=O)N1CCOCC1)C2)c1cc(N)cc(C(F)(F)F)c1` [Example 131, N-[(1R)-1-[3-amino-5-(trifluoro-methyl)phenyl]ethyl]-2-bromo-6-(morpholine-4-carbonyl)-5H,6H,7H-pyrrolo[3,4-d]pyrimidin-4-amine], the Kd in assay [1] is less than 400 nM. Moreover, the IC50 in assay [2] and in assay [3] was less than 1000 nM in each case.
With `C[C@@H](Nc1nc(Cl)nc2c1CN(C(=O)c1ccccn1)CC2)c1cc(N)cc(C(F)(F)F)c1` [Example 247], the Kd in assay [1] was more than 400 nM. The IC50 in assay [2] and in assay [3] was more than 1000 nM in each case.
Turning to `COC1(C(=O)N2Cc3nc(Cl)nc(N[C@H](C)c4cccc(C(F)(F)CN)c4F)c3C2)CCOCC1` [Example 526, N-[(1R)-1-[3-(2-amino-1,1-difluoroethyl)-2-fluorophenyl]ethyl]-2-chloro-6-(4-methoxyoxane-4-carbonyl)-5H,6H,7H-pyrrolo[3,4-d]pyrimidin-4-amine], the Kd in assay [1] was less than 400 nM. Also, the IC50 in assay [2] and in assay [3] was less than 1000 nM each time.
Take `C[C@@H](Nc1nc(Cl)nc2c1CN(C(=O)N1CCOCC1)C2)c1cccc(CF)c1F` [Example 527, 2-chloro-N-[(1R)-1-[2-fluoro-3-(fluoromethyl)phenyl]ethyl]-6-(morpholine-4-carbonyl)-5H,6H,7H-pyrrolo[3,4-d]pyrimidin-4-amine]: the Kd in assay [1] is less than 400 nM. The IC50 is more than 1000 nM in assay [2] and less than 1000 nM in assay [3].
On the same counts, the results for `C[C@@H](Nc1nc(Cl)nc2c1CN(S(=O)(=O)N1CCOCC1)C2)c1cc(N)cc(C(F)(F)F)c1` [Example 24, N-[(1R)-1-[3-amino-5-(trifluoromethyl)phenyl]ethyl]-2-chloro-6-morpholinosulfonyl-5,7-dihydropyrrolo[3,4-d]pyrimidin-4-amine] are less than 400 nM, less than 1000 nM and less than 1000 nM.
Turning to `C[C@@H](Nc1nc(Cl)nc2c1CN(C(=O)N1CCNCC1c1cccnc1)C2)c1cccc(C(F)F)c1F` (stereo partly drawn) [Example 386], the Kd in assay [1] was less than 400 nM. Besides, the IC50 in assay [2] and in assay [3] was less than 1000 nM in each case.
For the compound `C[C@@H](Nc1nc(Cl)nc2c1CC(N1CCN(C3CC3)CC1)CC2)c1cccc(C(F)(F)CO)c1` (stereo partly drawn) [Example 434], in assay [1], the Kd is less than 400 nM. The IC50 in assay [2] and in assay [3] was less than 1000 nM each time.
As for `C[C@@H](Nc1nc(Cl)nc2c1CN(C(=O)N1C3CCC1COC3)C2)c1cccc(C(F)F)c1F` [Example 396], in assay [1], the Kd is less than 400 nM. Moreover, the IC50 in assay [2] and in assay [3] was less than 1000 nM each time.
`C[C@@H](Nc1nc(Cl)nc2c1CN(C(=O)C1(F)CCNCC1)C2)c1cc(N)cc(C(F)(F)F)c1` [Example 272]: the Kd in assay [1] was less than 400 nM. Besides, the IC50 in assay [2] and in assay [3] was less than 1000 nM in each case.
For the compound `COC1CN([C@H]2CCc3ncnc(N[C@H](C)c4cccc(C(F)F)c4F)c3C2)C1` [Example 444], the Kd in assay [1] was less than 400 nM. The IC50 was more than 1000 nM in assay [2] and less than 1000 nM in assay [3].
For `CCc1nc2c(c(N[C@H](C)c3cc(N)cc(C(F)(F)F)c3)n1)CN(C(=O)N1CCOCC1)C2` [Example 128, N-[(1R)-1-[3-amino-5-(trifluoromethyl)phenyl]ethyl]-2-ethyl-6-(morpholine-4-carbonyl)-5H,6H,7H-pyrrolo[3,4-d]pyrimidin-4-amine], in that order: less than 400 nM, less than 1000 nM and less than 1000 nM.
For `COC1(C(=O)N2Cc3nc(Cl)nc(N[C@H](C)c4cccc(C(F)F)c4F)c3C2)CCN(C)CC1` [Example 323], in that order: less than 400 nM, less than 1000 nM and less than 1000 nM.
On the same counts, the results for `C[C@@H](Nc1nc(Cl)nc2c1CN(C(=O)C1(F)CCOCC1)C2)c1cc(N)cc(C(F)(F)F)c1` [Example 256] are less than 400 nM, less than 1000 nM and less than 1000 nM.
For the compound `C[C@@H](Nc1nc(Cl)nc2c1CN(C(=O)N1CCNCC(F)(F)C1)C2)c1cccc(C(F)F)c1F` [Example 402], the Kd in assay [1] is less than 400 nM. Further, the IC50 in assay [2] and in assay [3] was less than 1000 nM throughout.
As for `COC1(C(=O)N2Cc3nc(Cl)nc(N[C@H](C)c4cc(N)cc(C(F)(F)F)c4)c3C2)CCOCC1` [Example 93], in assay [1], the Kd was less than 400 nM. Moreover, the IC50 in assay [2] and in assay [3] was less than 1000 nM in each case.
As for `C[C@@H](Nc1nc(Cl)nc2c1CN(S(=O)(=O)C1CNC1)CC2)c1cc(N)cc(C(F)(F)F)c1` [Example 451], the Kd in assay [1] was less than 400 nM. The IC50 in assay [2] and in assay [3] was less than 1000 nM throughout.
As to `C[C@@H](Nc1nc(Cl)nc2c1CN(C(=O)C1(F)CCN(C)CC1)C2)c1cccc(C(F)F)c1F` [Example 326], the Kd in assay [1] is less than 400 nM. The IC50 in assay [2] and in assay [3] was less than 1000 nM each time.
As to `C[C@@H](Nc1nc(Cl)nc2c1CN(C(=O)N1CCN(C)CC1)C2)c1cccc(C(F)(F)CO)c1` [Example 355], the Kd in assay [1] is less than 400 nM. Also, the IC50 in assay [2] is more than 1000 nM; in assay [3] it was less than 1000 nM.
For `C[C@@H](Nc1nc(Cl)nc2c1CN(S(=O)(=O)C1CCOCC1)C2)c1cc(N)cc(C(F)(F)F)c1` [Example 51], in that order: less than 400 nM, less than 1000 nM and less than 1000 nM.
On the same counts, the results for `CC(Nc1nc(Cl)nc2c1CN(C(=O)N1CCOCC1)C2)c1cccc(C(F)(F)CO)c1` (stereo not drawn) [Example 171, [2-chloro-4-[1-[3-(1,1-difluoro-2-hydroxy-ethyl)phenyl]ethylamino]-5,7-dihydropyrrolo[3,4-d]pyrimidin-6-yl]-morpholino-methanone] are less than 400 nM, less than 1000 nM and less than 1000 nM.
Regarding `C[C@@H](Nc1nc(Cl)nc2c1CN(C(=O)C1(C)CCN(C)CC1)C2)c1cc(N)cc(C(F)(F)F)c1` [Example 262], the Kd in assay [1] was less than 400 nM. Further, the IC50 in assay [2] and in assay [3] was less than 1000 nM in each case.
Regarding `C[C@@H](Nc1nc(Cl)nc2c1CN(C(=O)C1(C)CCN(C3COC3)CC1)C2)c1cccc(C(F)F)c1F` [Example 327], the Kd in assay [1] is less than 400 nM. For the same compound, the IC50 in assay [2] and in assay [3] was less than 1000 nM throughout.
Regarding `COC1(C(=O)N2Cc3nc(Cl)nc(N[C@H](C)c4cccc(C(F)F)c4F)c3C2)CCOCC1` [Example 330], in assay [1], the Kd is less than 400 nM. The IC50 in assay [2] and in assay [3] was less than 1000 nM each time.
Turning to `CC(Nc1nc(Cl)nc2c1CN(C(=O)N1CCOCC1)C2)c1ccc(-c2ccccc2CO)s1` (stereo not drawn) [Example 53, [2-chloro-4-[1-[5-[2-(hydroxymethyl)phenyl]-2-thienyl]ethylamino]-5,7-dihydropyrrolo[3,4-d]pyrimidin-6-yl]-morpholino-methanone], in assay [1], the Kd was more than 400 nM. Moreover, the IC50 in assay [2] and in assay [3] was more than 1000 nM each time.
Turning to `C[C@@H](Nc1nc(Cl)nc2c1CN(C(=O)C1COCCN1)C2)c1cccc(C(F)(F)F)c1` (stereo partly drawn) [Example 276], the Kd in assay [1] was more than 400 nM. Further, the IC50 is more than 1000 nM in assay [2] and less than 1000 nM in assay [3].
For `C[C@@H](Nc1nc(Cl)nc2c1CN(C(=O)N1CCOCC1)C2)c1cccc(C(F)(F)C(C)(C)O)c1F` [Example 493], in that order: less than 400 nM, less than 1000 nM and less than 1000 nM.
For `COc1cc(C(=O)N2CCc3nc(Cl)nc(N[C@H](C)c4cc(N)cc(C(F)(F)F)c4)c3C2)nc(OC)n1` [Example 229], in that order: more than 400 nM, more than 1000 nM and more than 1000 nM.
On the same counts, the results for `C[C@@H](Nc1nc(Cl)nc2c1CN(C(=O)N1CCN(C)CC(F)(F)C1)C2)c1cccc(C(F)F)c1F` [Example 419] are less than 400 nM, less than 1000 nM and less than 1000 nM.
Take `C[C@@H](Nc1nc(Cl)nc2c1CN(S(=O)(=O)c1c[nH]cn1)CC2)c1cc(N)cc(C(F)(F)F)c1` [Example 458]: in assay [1], the Kd was less than 400 nM. For the same compound, the IC50 in assay [2] and in assay [3] was less than 1000 nM each time.
Take `COC1(C(=O)N2Cc3nc(Cl)nc(N[C@H](C)c4cccc(C(F)F)c4F)c3C2)CN(C2COC2)C1` [Example 340]: the Kd in assay [1] is less than 400 nM. For the same compound, the IC50 in assay [2] and in assay [3] was less than 1000 nM in each case.
